Data from ChEMBL document CHEMBL5385875, “Tumor killing by a dietary curcumin mono-carbonyl analog that works as a selective ROS generator via TrxR inhibition” (Eur J Med Chem, 2023).
The source made the active and inactive calls. No cut-off for these calls is given here.

Assays:
[1] = Cytotoxicity against human MRC5 cells assessed as reduction in cell viability incubated for 48 hrs by MTT assay; type: toxicity, cell-based
NCI-H460 [2] = test: Cytotoxicity against human NCI-H460 cells assessed as reduction in cell viability incubated for 48 hrs by MTT assay; type: functional, cell-based; details: NCI-H460, 48 h
A549 = test: Cytotoxicity against human A549 cells assessed as reduction in cell viability incubated for 48 hrs by MTT assay; type: functional, cell-based; details: A549, 48 h
HepG2 = test: Cytotoxicity against human HepG2 cells assessed as reduction in cell viability incubated for 48 hrs by MTT assay; type: functional, cell-based; details: HepG2, 48 h
HT-1080 = test: Cytotoxicity against human HT-1080 cells assessed as reduction in cell viability incubated for 48 hrs by MTT assay; type: functional, cell-based; details: HT-1080, 48 h
[3] = Selectivity index, ratio of IC50 for human MRC5 cells to IC50 for human NCI-H460 cells; type: toxicity; details: MRC5 cells versus NCI-H460 cells, read-out: Ratio IC50
NCI-H460 [4] = test: Induction of intracellular ROS accumulation in human NCI-H460 cells at 2 uM measured after 6 hrs by DCFH-DA dye based fluorescence assay; type: functional, cell-based
NCI-H460 [5] = test: Induction of ROS accumulation in human NCI-H460 cells assessed as reduction in GSH levels by measuring yellow green fluorescence incubated for 9 hrs by fluorescence microscope based analysis; type: functional, cell-based
[6] = biological target: Thioredoxin reductase (Homo sapiens) (UniProt Q16881+Q9NNW7+Q86VQ6); test: Inhibition of TrxR in human NCI-H460 cells at 2 uM measured after 6 hrs by fluorescence microscopy based analysis; type: cell-based

Structure (SMILES)	IC50 at 48 h [1] [µM]	IC50 (NCI-H460 [2]) [µM]	IC50 (A549) [µM]	IC50 (HepG2) [µM]	IC50 (HT-1080) [µM]	selectivity ratio [3]	Activity (NCI-H460 [4])	Activity (NCI-H460 [5])	inhibition [6]
COc1ccc(/C=C2\CN(C)C/C(=C\c3ccc(OC)cc3)C2=O)cc1	> 100	> 100	> 100	> 100	> 100	–	–	–	–
CN1C/C(=C\c2ccc(C(F)(F)F)cc2)C(=O)/C(=C/c2ccc(C(F)(F)F)cc2)C1	4.76	2.2	1.58	1.01	2.03	2.16	–	–	–
COc1ccccc1/C=C1\CNC/C(=C\c2ccccc2OC)C1=O	3.67	2.88	3.32	1.93	35.9	1.27	inactive	–	–
COc1cccc(/C=C2\CN(C)C/C(=C\c3cccc(OC)c3)C2=O)c1	13.4	5.68	1.18	1.36	1.99	2.37	–	–	–
O=C1/C(=C/c2cccc(C(F)(F)F)c2)CCC/C1=C\c1cccc(C(F)(F)F)c1	21.9	6.06	3.96	3.54	6.34	3.62	–	–	–
O=C1/C(=C/c2ccccc2)CCC/C1=C\c1ccccc1 [2,6-DIBENZYLIDENECYCLOHEXANONE]	> 100	50.5	26.3	28.5	32.6	–	–	–	–
O=C1/C(=C/c2ccc(C(F)(F)F)cc2)CCC/C1=C\c1ccc(C(F)(F)F)cc1	47.7	14.4	2.97	> 100	7.2	3.32	–	–	–
O=C1/C(=C/c2ccccc2)CNC/C1=C\c1ccccc1	4.85	2.34	7.36	1.38	5.41	2.07	inactive	inactive	inactive
CC[C@@]1(O)C(=O)OCc2c1cc1n(c2=O)Cc2cc3ccccc3nc2-1 [CAMPTOTHECIN]	9.02	0.79	–	–	–	11.4	–	–	–
CN1C/C(=C\c2ccccc2C(F)(F)F)C(=O)/C(=C/c2ccccc2C(F)(F)F)C1	> 100	> 100	> 100	> 100	49.5	–	–	–	–
CN1C/C(=C\c2cccc(C(F)(F)F)c2)C(=O)/C(=C/c2cccc(C(F)(F)F)c2)C1	9.25	2.94	1.08	1.12	3.86	3.15	–	–	–
COc1cc(/C=C/C(=O)CC(=O)/C=C/c2ccc(O)c(OC)c2)ccc1O [CURCUMIN]	51.2	–	44.8	22.8	21.9	2.52	inactive	inactive	inactive
O=c1[nH]cc(F)c(=O)[nH]1 [FLUOROURACIL]	246	24.8	–	–	–	9.89	–	–	–
COc1ccccc1/C=C1\CCC/C(=C\c2ccccc2OC)C1=O	> 100	79.8	66.8	60.1	> 100	–	–	–	–
CN1C/C(=C\c2ccccc2)C(=O)/C(=C/c2ccccc2)C1	31.3	26.9	11.3	10.6	3.82	1.16	–	–	–
O=C1/C(=C/c2ccccc2C(F)(F)F)CCC/C1=C\c1ccccc1C(F)(F)F	> 100	> 100	> 100	> 100	> 100	–	–	–	–
COc1cccc(/C=C2\CNC/C(=C\c3cccc(OC)c3)C2=O)c1	9.11	7.93	14.3	5.19	20	1.23	inactive	–	–
COc1ccc(/C=C2\CCC/C(=C\c3ccc(OC)cc3)C2=O)cc1	> 100	> 100	> 100	> 100	> 100	–	–	–	–
O=C1/C(=C/c2ccc(C(F)(F)F)cc2)CNC/C1=C\c1ccc(C(F)(F)F)cc1	8.65	7.11	2.02	37.1	5.48	1.22	inactive	–	–
COc1cccc(/C=C2\CCC/C(=C\c3cccc(OC)c3)C2=O)c1	46	16.4	11.6	14	22.2	2.81	–	–	–
COc1ccc(/C=C2\CNC/C(=C\c3ccc(OC)cc3)C2=O)cc1	> 100	> 100	> 100	> 100	> 100	–	inactive	–	–
O=C1/C(=C/c2ccccc2C(F)(F)F)CNC/C1=C\c1ccccc1C(F)(F)F	> 100	> 100	> 100	> 100	> 100	–	inactive	–	–
COc1ccccc1/C=C1\CN(C)C/C(=C\c2ccccc2OC)C1=O	17	8.39	6.81	10.7	9.62	2.03	–	–	–
